Assay: Inhibition of LPS-induced macrophagic NOS at 100 uM

N=C(N)Nc1cccnc1
inhibition: 50%
